Laboratory results from PubChem BioAssay (NCI).
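Step 1: Grow cells in 96-well plates. Step 2: Expose to compound for 48 hours at 5 concentrations. Step 3: Interpolate endpoints linearly; if unreached, use highest concentration. TGI denotes the concentration required for complete inhibition of growth.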

Legend:
Experiment in all cases: inhibition of tumour cell growth, NCI panel, 48 h
UACC-257 melanoma = tested on: UACC-257 melanoma
MCF7 breast = tested on: MCF7 breast
HS 578T breast = tested on: HS 578T breast
HCC-2998 colon = tested on: HCC-2998 colon
COLO 205 colon = tested on: COLO 205 colon
TK-10 renal = tested on: TK-10 renal
OVCAR-4 ovarian = tested on: OVCAR-4 ovarian
MDA-MB-231 breast = tested on: MDA-MB-231 breast
DU-145 prostate = tested on: DU-145 prostate
SK-MEL-2 melanoma = tested on: SK-MEL-2 melanoma
786-0 renal = tested on: 786-0 renal
HOP-92 NSCLC = tested on: HOP-92 NSCLC
SF-295 CNS = tested on: SF-295 CNS
MOLT-4 leukemia = tested on: MOLT-4 leukemia
OVCAR-8 ovarian = tested on: OVCAR-8 ovarian
U251 CNS = tested on: U251 CNS
MALME-3M melanoma = tested on: MALME-3M melanoma
K-562 leukemia = tested on: K-562 leukemia
T-47D breast = tested on: T-47D breast
SR leukemia = tested on: SR leukemia

Row | Structure (SMILES) | TGI (UACC-257 melanoma) [µM] | TGI (MCF7 breast) [µM] | TGI (HS 578T breast) [µM] | TGI (HCC-2998 colon) [µM] | TGI (COLO 205 colon) [µM] | TGI (TK-10 renal) [µM] | TGI (OVCAR-4 ovarian) [µM] | TGI (MDA-MB-231 breast) [µM] | TGI (DU-145 prostate) [µM] | TGI (SK-MEL-2 melanoma) [µM] | TGI (786-0 renal) [µM] | TGI (HOP-92 NSCLC) [µM] | TGI (SF-295 CNS) [µM] | TGI (MOLT-4 leukemia) [µM] | TGI (OVCAR-8 ovarian) [µM] | TGI (U251 CNS) [µM] | TGI (MALME-3M melanoma) [µM] | TGI (K-562 leukemia) [µM] | TGI (T-47D breast) [µM] | TGI (SR leukemia) [µM]
1 | CCOC(=O)Cc1csc2[n+]1C(=O)/C(=C\c1cccc(Cl)c1Cl)S2 | 90.1 | > 100 | 89.7 | 39.7 | 20.7 | 55.6 | 42.3 | 87.4 | 46.3 | 36.7 | 31.2 | 26.8 | 46.5 | 33.5 | 35.9 | 64.6 |  |  |  | 
2 | COc1cc(NC(C)=O)ccc1C(=O)NN1C(=O)C(Cl)C1c1ccco1 (stereo unspecified) |  | > 100 |  |  | > 100 |  | > 100 |  | > 100 | > 100 | > 100 | > 100 |  | > 100 | > 100 |  | > 100 | > 100 | > 100 | > 100
3 | CCN1C[C@]2(C)CC[C@H](OC)C34C1C([C@H](OC(C)=O)[C@@H]32)[C@@]1(OC)C[C@H](OC)[C@H]2C[C@@H]4[C@@H]1[C@H]2O | > 100 |  |  | > 100 | > 100 | > 100 | > 100 |  |  | > 100 | > 100 | > 100 | > 100 | > 100 | > 100 | > 100 | > 100 | > 100 |  | 
4 | C/C=C\C(CC(=O)NCCC1CN(S(=O)(=O)C(F)(F)F)c2ccccc21)CC(=O)OC (stereo unspecified) | > 100 | > 100 | 72.3 | > 100 | 63 |  | > 100 | > 100 | > 100 | 94 | > 100 | > 100 | > 100 | > 100 | > 100 | > 100 | 45.9 | > 100 |  | > 100
5 | c1ccc(C2=NOC3(c4ccccc4)SC4CCCCC4CN23)cc1 (stereo unspecified) | > 100 |  |  | > 100 | 69.4 | > 100 | > 100 |  |  | > 100 | > 100 | 59.4 | > 100 | 51.3 |  | 37.6 | > 100 | > 100 |  | > 100
6 | CN1CCCCC(C#N)(c2ccccc2)CC1 (stereo unspecified) | > 100 | > 100 | > 100 | > 100 | > 100 | > 100 | > 100 |  | > 100 |  | > 100 | > 100 | > 100 | > 100 | > 100 | > 100 | > 100 | > 100 | > 100 | > 100
7 | NC(=O)NC(=O)c1cccc(CNc2ccc(C(=O)N[C@@H](CCC(=O)O)C(=O)O)cc2)n1 | > 100 | > 100 | > 100 | > 100 | > 100 | > 100 | > 100 | > 100 | > 100 | > 100 | > 100 | > 100 | > 100 | > 100 | > 100 | > 100 |  | > 100 |  | > 100
